Measured values as given in patent publication US12501899B2, “Mite infestation treatment” (priority 2019, dated 2025).
Where a name gives a salt, the structure may show the parent alone. Read-outs that look alike come from different tables or passages of the source.

Legend:
Ixodes ricinus = assay: Oral acaricidal test on ticks in membrane feeding wells with treated blood; assay type: in vivo; details: for mortality at 1 ppm / mortality at 10 ppm / mortality at 100 ppm: Ixodes ricinus, po
Experimental: A laboratory study was conducted to determine the oral acaricidal properties of three compounds according to the invention (SN0305, SN0306 and SN0307) against Ixodes ricinus. Each compound was tested at 1, 10 and 100 ppm, and compared to a negative control corresponding to solvent alone (0.1% DMSO). Amitraz at 100 ppm was used as a positive control.
The Ixodes ricinus ticks (nymphs and adults) were placed for 24 hours on a membrane in feeding wells containing blood mixed with the tested compounds. Tick mortality (number of dead, moribund, or unaffected ticks in each well), attachment to the membrane (number of ticks attached/detached in each well), and the behavior (presence or absence of twitches) were examined 1, 3, 6, 12, 24, 48, 72, and 96 hours after the onset of tick exposure to the compounds.
Ticks (Ixodes ricinus) were collected. Collected adult females were kept separate from the nymphs and both were placed in sterile tubes in a humidity chamber to provide ˜80% humidity and 17° C. Only healthy ticks (females/nymphs) were chosen for the experiment.
Batches of 12 adults or nymphs were inserted into the feeding wells. After about 24 hours, their attachment was examined with a brush.
The efficiency of three compounds (SN0305, SN0306 and SN0307), each tested at three concentrations (1, 10, 100 ppm), was compared to the solvent control (0.1% DMSO, Sigma-Aldrich D-5879; Lot 101K0028) and to the positive control (Amitraze at 100 ppm).
Silicone-coated membranes with a thickness comprised between 110 and 140 μm were used for the construction of the feeding units.
Feeding units (sterilized acrylic glass tubes) were placed in feeding wells made of sterilized six-well plates.
3.1 ml of sterile 10^−3 M ATP-enriched blood was applied to each feeding well. Feeding wells were then inserted into a heated water bath (FIG. 12) and maintained at 37° C.±2° C.
Stock solutions of 100,000 ppm were prepared and tenth dilutions were carried out in 0.1% DMSO to reach the desired concentrations. After tick attachment (24 hours after placing the ticks in the feeding wells), 3.1 μl of the solutions were added to each feeding well containing 3.1 ml of blood. Blood was changed after 12 hours with fresh supplementation of the compounds to be tested. The ticks were exposed to the product for a total of 24 hours, after which the blood was again changed to fresh, untreated blood.
Tick mortality (number of dead, moribund or unaffected ticks in each well), attachment (number of attached/detached ticks in each well) and behavior (presence, absence and intensity of convulsions) were examined 1, 3, 6, 12, 24, 48, 72, and 96 hours after the start of tick exposure to the compound.

Varroa destructor = details: 0.1 μg/μL in ethanol
Experimental: About 300 bees (Apis mellifera) infected with Varroa destructor were taken from a hive superinfected with Varroa destructor. The bees were then placed in a device allowing to detach Varroa mites attached to the bees (device described in Community model n° 003419415-0001) filled with icing sugar. The device was stirred for 2 minutes to sample the Varroa mites attached to the bees. The icing sugar allows to interfere between the bee and the Varroa mite that was attached thereto. Varroa mites were harvested with icing sugar because they pass through the holes in the device, unlike bees. The Varroa mites were then separated from the icing sugar.
The Varroa mites thus recovered were dispatched in boxes (10 Varroa mites per box).
The bees were then dispatched in the boxes (10 per box).
The bees were then put to sleep for a few minutes using CO2 (flow of 3 liters for 20 seconds) in order to deposit 1 μL of compound to be tested on their thorax using a pipette. It should be noted that the bees which received romifidine hydrochloride at a concentration of 10 μg/μL received 2 μL of product. The bees were unconscious for the time the compound to be tested was deposited, that is to say around three minutes, then they woke up.
After thoracic deposition of the compound to be tested, the 10 bees from the same box were transferred to a box containing the 10 Varroa mites (cf. “Preparation of Varroa mites” above). Liquid sugar was left in each of the boxes to feed the bees during the observations. The series of boxes was then placed in an oven at […] with a humidity of 50% in order to approximate hive conditions as closely as possible.
The mortality of Varroa mites and bees was then monitored 5 minutes, 2 hours, 4 hours and 24 hours after application of the compound to be tested to the bees. Dead Varroa mites correspond to Varroa mites detached from the bees. Dead bees correspond to bees which no longer move and which are often placed on their thorax.
The following compositions were applied to the thorax of the bees: • Solvent, • Amitraz at 1 μg/μL in acetone, • Clonidine hydrochloride at 100 μg/μL, 10 μg/μL, 1 μg/μL and 0.1 μg/μL in methanol, • Detomidine hydrochloride monohydrate at 1 μg/μL in methanol, • Dexmedetomidine hydrochloride at 100 μg/μL, 10 μg/μL, 1 μg/μL and 0.1 μg/μL in methanol, • Romifidine hydrochloride at 10 μg/μL and at 5 μg/μL in methanol, • Tizanidine hydrochloride at 1 μg/μL in methanol, • Medetomidine hydrochloride at 0.1 μg/μL in ethanol, • Levomedetomidine hydrochloride at 100 μg/μL, 10 μg/μL, 1 μg/μL and 0.1 μg/μL in methanol, • Octopamine at 1 μg/μL in ethanol. Results

[1] = adult ticks, 1 h, read-out: average percentage of adult tick mortality (moribund or dead adult ticks)
[2] = adult ticks, 3 h, read-out: average percentage of adult tick mortality (moribund or dead adult ticks)
[3] = adult ticks, 6 h, read-out: average percentage of adult tick mortality (moribund or dead adult ticks)
[4] = adult ticks, 12 h, read-out: average percentage of adult tick mortality (moribund or dead adult ticks)
[5] = adult ticks, 24 h, read-out: average percentage of adult tick mortality (moribund or dead adult ticks)
[6] = adult ticks, 48 h, read-out: average percentage of adult tick mortality (moribund or dead adult ticks)
[7] = adult ticks, 72 h, read-out: average percentage of adult tick mortality (moribund or dead adult ticks)
[8] = adult ticks, 96 h, read-out: average percentage of adult tick mortality (moribund or dead adult ticks)
[9] = nymphs, 1 h, read-out: average percentage of mortality of tick nymphs (moribund or dead nymphs)
[10] = nymphs, 3 h, read-out: average percentage of mortality of tick nymphs (moribund or dead nymphs)
[11] = nymphs, 6 h, read-out: average percentage of mortality of tick nymphs (moribund or dead nymphs)
[12] = nymphs, 12 h, read-out: average percentage of mortality of tick nymphs (moribund or dead nymphs)
[13] = nymphs, 24 h, read-out: average percentage of mortality of tick nymphs (moribund or dead nymphs)
[14] = nymphs, 48 h, read-out: average percentage of mortality of tick nymphs (moribund or dead nymphs)
[15] = nymphs, 72 h, read-out: average percentage of mortality of tick nymphs (moribund or dead nymphs)
[16] = nymphs, 96 h, read-out: average percentage of mortality of tick nymphs (moribund or dead nymphs)

Cc1cccc(C(C)c2cnc[nH]2)c1C (racemic) [Medetomidine hydrochloride]
effect in terms of tick detachment (in words) (Ixodes ricinus; 1, 10, 100 ppm, nymphs and adults): very limited effect | mortality at 1 ppm (Ixodes ricinus; [1]): 0% | mortality at 1 ppm (Ixodes ricinus; [2]): 0% | mortality at 1 ppm (Ixodes ricinus; [3]): 2.3% | mortality at 1 ppm (Ixodes ricinus; [4]): 7.3% | mortality at 1 ppm (Ixodes ricinus; [5]): 47.6% | mortality at 1 ppm (Ixodes ricinus; [6]): 97.7% | mortality at 1 ppm (Ixodes ricinus; [7]): 100% | mortality at 1 ppm (Ixodes ricinus; [8]): 100% | mortality at 10 ppm (Ixodes ricinus; [1]): 0% | mortality at 10 ppm (Ixodes ricinus; [2]): 0% | mortality at 10 ppm (Ixodes ricinus; [3]): 9.6% | mortality at 10 ppm (Ixodes ricinus; [4]): 9.6% | mortality at 10 ppm (Ixodes ricinus; [5]): 53.9% | mortality at 10 ppm (Ixodes ricinus; [6]): 91.2% | mortality at 10 ppm (Ixodes ricinus; [7]): 100% | mortality at 10 ppm (Ixodes ricinus; [8]): 100% | mortality at 100 ppm (Ixodes ricinus; [1]): 0% | mortality at 100 ppm (Ixodes ricinus; [2]): 0% | mortality at 100 ppm (Ixodes ricinus; [3]): 12.5% | mortality at 100 ppm (Ixodes ricinus; [4]): 18.1% | mortality at 100 ppm (Ixodes ricinus; [5]): 53.1% | mortality at 100 ppm (Ixodes ricinus; [6]): 84.7% | mortality at 100 ppm (Ixodes ricinus; [7]): 93.8% | mortality at 100 ppm (Ixodes ricinus; [8]): 100% | mortality at 1 ppm (Ixodes ricinus; [9]): 0% | mortality at 1 ppm (Ixodes ricinus; [10]): 0% | mortality at 1 ppm (Ixodes ricinus; [11]): 19.5% | mortality at 1 ppm (Ixodes ricinus; [12]): 38.9% | mortality at 1 ppm (Ixodes ricinus; [13]): 61.8% | mortality at 1 ppm (Ixodes ricinus; [14]): 93.9% | mortality at 1 ppm (Ixodes ricinus; [15]): 100% | mortality at 1 ppm (Ixodes ricinus; [16]): 100% | mortality at 10 ppm (Ixodes ricinus; [9]): 0% | mortality at 10 ppm (Ixodes ricinus; [10]): 10.4% | mortality at 10 ppm (Ixodes ricinus; [11]): 38.4% | mortality at 10 ppm (Ixodes ricinus; [12]): 58.5% | mortality at 10 ppm (Ixodes ricinus; [13]): 78.7% | mortality at 10 ppm (Ixodes ricinus; [14]): 85% | mortality at 10 ppm (Ixodes ricinus; [15]): 95.8% | mortality at 10 ppm (Ixodes ricinus; [16]): 100% | mortality at 100 ppm (Ixodes ricinus; [9]): 0% | mortality at 100 ppm (Ixodes ricinus; [10]): 9.1% | mortality at 100 ppm (Ixodes ricinus; [11]): 38.5% | mortality at 100 ppm (Ixodes ricinus; [12]): 69.2% | mortality at 100 ppm (Ixodes ricinus; [13]): 94.4% | mortality at 100 ppm (Ixodes ricinus; [14]): 100% | mortality at 100 ppm (Ixodes ricinus; [15]): 100% | mortality at 100 ppm (Ixodes ricinus; [16]): 100% | ticks affected (convulsion, morbidity or death of ticks) (Ixodes ricinus; from 1 hour of exposure, regardless of the concentration tested (1, 10, 100 ppm)): 100% | Varroacid effect (in words) (Varroa destructor): very effective
